In brackets after ≈: the same amount, converted by molar mass. Read-outs that look alike come from different tables or passages of the source.
Assays:
[1] = system: Mtb strain H37Rv; test: Microplate Alamar Blue assay; assay type: cell-based, Mycobacterium tuberculosis; conditions: MABA, average of three measurements
[2] = Human liver microsomal stability; conditions: human liver microsomes; for Remaining (NCF = 60 min): without the NADPH cofactor
[3] = system: clinically isolated strains of MDR/XDR-TB; test: microbe, parasite or virus in culture; assay type: cell-based, Mycobacterium tuberculosis
[4] = system: Vero cells; test: Cytotoxicity against Vero cells; assay type: cell-based, African green monkey; conditions: Chlorocebus sabaeus, read-out: Vero cells IC50, Vero cells
[5] = system: Mtb V4207; test: microbe, parasite or virus in culture; assay type: cell-based; conditions: Mycobacterium tuberculosis, V4207, read-out: Mtb MIC V4207/ DS

| SMILES | MIC [1] [µg/mL] | Remaining (NCF = 60 min) [2] | other results |
| --- | --- | --- | --- |
| CC(C)c1ccc(-c2cccc(CN3CC[Si](C)(C)CC3)n2)cc1 [Compound 13, 1-((6-(4-Isopropylphenyl)pyridin-2-yl)methyl)-4,4-dimethyl-1,4-azasilinane] | 4 to 8 |  |  |
| C[C@]12CC[C@H]3[C@@H](CCC4=CC(=O)CC[C@@]43C)[C@@H]1CC[C@@H]2O [Testosterone, reference compound] |  | stable |  |
| c1ccc(-c2ccc(-c3ccnc(CN4CCC5(CCCC5)CC4)c3)cc2)cc1 [Compound 62, 8-((4-([1,1'-Biphenyl]-4-yl)pyridin-2-yl)methyl)-8-azaspiro[4.5]decane] |  | stable | MIC [3]: 0.0039 to 0.0625 µg/mL; MIC ([3]; Mycobacterium tuberculosis): 0.004 to 0.063 µg/mL (≈ 0.0105 to 0.165 µM); IC50 [4]: ≥ 16 µg/mL; MIC [5]: 0.0039 µg/mL (≈ 0.0102 µM) |
| CC(C)c1ccc(-c2ccnc(CN3CCC4(CCCC4)CC3)c2)cc1 [Compound 37, 8-((4-(4-Isopropylphenyl)pyridin-2-yl)methyl)-8-azaspiro[4.5]decane] |  | stable |  |
| c1cc(-c2ccc(-c3ccoc3)cc2)cc(CN2CCC3(CCCC3)CC2)n1 [Compound 68, 8-((4-(4-(Furan-3-yl)phenyl)pyridin-2-yl)methyl)-8-azaspiro[4.5]decane] |  | stable |  |
| CC(C)c1ccc(-c2cc(CN3CC[Si](C)(C)CC3)ncn2)cc1 [Compound 27, 4-((4,4-Dimethyl-1,4-azasilinan-1-yl)methyl)-6-(4-isopropylphenyl)pyrimidine] | 4 to 8 |  |  |
| CC(C)c1ccc(-c2cc(CN3CC[Si](C)(C)CC3)ccn2)cc1 [Compound 17, 1-((2-(4-Isopropylphenyl)pyridin-4-yl)methyl)-4,4-dimethyl-1,4-azasilinane] | 4 to 8 |  |  |
| O=C(O)Cc1ccccc1Nc1c(Cl)cccc1Cl [Diclofenac, reference compound] |  | stable | Remaining (T = 60 min) ([2]; with NADPH, after 60 min): 0.4% |

From publication PMC10239758 (European journal of medicinal chemistry, 2023)
